{"source": "patent US8507464B2", "about": "“Phosphoramidate alkylator prodrugs” (Threshold Pharmaceuticals, Inc., priority 2005, dated 2013)", "key": {"Irs1SF": {"tested_on": "Irs1SF", "assay": "Clonogenic survival - DNA mutant repair cells", "details": "Cricetulus griseus"}, "[1]": {"tested_on": "rat (RLM) liver microsomal proteins", "assay": "Metabolic stability in liver microsomal protein", "format": "in vitro ADME", "details": "5 μM"}, "HT29 spheroids": {"tested_on": "HT29 spheroids", "assay": "Spheroid model, clonogenic survival", "format": "cell-based", "details": "Homo sapiens, HT-29, read-out: IC90 HT29 Spheroid 10% O2"}, "H460 xenograft": {"tested_on": "H460 xenograft", "assay": "H460 xenograft in nude mice, ip bolus or ip infusion with Cisplatin (Example 54)", "format": "in vivo, mouse", "details": "alone or in combination with CDDP", "method": "Example 54 describes efficacy of Compound 25 via an ip bolus injection or ip infusion alone or in combination with Cisplatin in the H460 xenograft mouse model. Female Nu-Foxn1^nu homozygous nu/nu mice (purchased from Charles River, Cambridge, Mass.), 6 weeks of age, were allowed to acclimatize for at least three days, and handled under pathogen-free conditions. Human H460 cells were obtained from the American Type Culture Collection. The cell lines were cultured and harvested as described in Example 47 and inoculated at 3×10^6 cells/animal in the peritoneal subcutaneous space. When the tumors grew to an average volume of 100 mm^3 (day 8), each group of mice (ten per group) was administered, for three weeks, as tabulated in the table below: Compound 25 (formulated as a 15 mg/ml saline solution, administration route—i.p., administrated 2 h before CDDP on the days the combination therapy is scheduled) and CDDP in saline, IV.\nThe body weight and tumor volume was determined as described in Example 47."}, "PC3 cells": {"tested_on": "PC3 cells", "assay": "Clonogenic assay - oxygen dependence", "details": "Homo sapiens"}, "NCI H460 xenograft [2]": {"tested_on": "NCI H460 xenograft", "assay": "H460 xenograft mouse model, 150 mg/kg weekly with CDDP (Example 53)", "format": "in vivo", "method": "Female CB17/SCID mice (purchased from Charles River, Cambridge, Mass.), 7-8 weeks of age, were allowed to acclimatize for at least three days, and handled under pathogen-free conditions. Human non-small cell lung cell line NCI H460 was obtained from the American Type Culture Collection. The cell lines were cultured and harvested as described in Example 47 and inoculated at 3×10^6 cells/animal in the peritoneal subcutaneous space. When the tumors grew to an average volume of 100 mm^3, treatment was initiated in which groups of 10 mice received vehicle (Group 1), CDDP at 6 mg/kg (IV one time, Group 2), Compound 25 at 150 mg/kg in saline, once a week for two weeks (i.p., Group 3), or the combination of the two agents (Group 4)."}, "HCT116 cells": {"tested_on": "HCT116 cells", "assay": "Multilayered cell culture (MCC) assay, inhibition of BrdU incorporation", "format": "cell-based", "details": "for IC50: Homo sapiens", "method": "MCCs were incubated with oxygenated media (20% O2 & 5% O2) or hypoxic media (approximately 0% O2) and the test compound was exposed from one side (exposed surface, normoxic side) while the other side was temporarily closed off (far side, hypoxic side). When MCC's are incubated in media at 20% O2 or 5% O2 a gradient in oxygen develops from the surface exposed to the media towards the far surface of the culture. The furthest 50 μm of tissue becomes depleted of oxygen. The extent of O2 depletion is greater with 5% than the 20% O2 gassed media; incubation with 5% O2 reflects the in vivo situation most closely. Incubating MCCs with media at 0% O2 models perfusion limited hypoxia, where tumor blood vessels become completely depleted of oxygen and test compound must penetrate extensive distances to reach all cells. This situation therefore poses a greater barrier to drug penetration, if binding of activated drug acts to limit its penetration.\nMCC based experiments were carried out with media gassed with 0, 5 or 20% O2 for 45 minutes prior to and during incubation with the test compound. HCT116 cells were grown to a thickness of 150 μm on a solid support and one side of the culture was clamped off to develop diffusion limited hypoxia. […] The cultures were incubated for a second hour in fresh media at 20% O2 and removed from the apparatus and returned to a normal growth chamber, where media flows over both sides of the MCC. Cultures were incubated for 24 hours prior to BrdUrd labeling and subsequent cryosectioning. BrdUrd labeling on the exposed and far sides of the MCC were analyzed using immunohistochemical staining, microscope imaging and computer image analysis to assess the effect of Compound 25 on cell proliferation."}, "NCI H460 xenograft [3]": {"tested_on": "NCI H460 xenograft", "assay": "NCI H460 non small cell lung carcinoma xenograft mouse model (Example 48)", "format": "in vivo", "details": "day 29, vs vehicle", "method": "Female CB17/SCID mice (purchased from Charles River, Cambridge, Mass.), 7-8 weeks of age, were allowed to acclimatize for at least three days, and handled under pathogen-free conditions. Human […] cell line NCI H460 was obtained from the American Type Culture Collection. The cell lines were cultured and harvested according to the procedure described in Example 47 and inoculated at 1×10^6 cells/animal in the peritoneal subcutaneous space. When the tumors grew to an average volume of 100 mm^3 (day 8), […], as tabulated in the table below: Compound 25 (2.5 mg/ml in 10% PEG; administration route—i.p.) and Taxol (1 mg/ml in 5% EtOH, 5% Cremophor and 90% saline; administration—i.v. 2 h after administration of Compound 25). The body weight and tumor volumes were measured as described in Example 47 above.\nResults are presented in Table X2 based on tumor volume measurement on day 29 when vehicle treated mice had reached a volume of 946 mm^3. Groups of 5 mice receiving saline or no treatment were added in order to indicate any vehicle effects but are not used for comparisons in this analysis."}, "[4]": {"tested_on": "human (HLM) liver microsomal proteins", "assay": "Metabolic stability in liver microsomal protein", "format": "in vitro ADME", "details": "Table 2A, second study, 5 μM"}}, "note": "Like-named read-outs stand apart in the source and are kept apart here.", "data": [{"compound": "Cn1c(COP(=O)(NCCCl)NCCCl)cnc1[N+](=O)[O-]", "note": "[Compound 36]", "values": [{"measurement": "MTD", "setting": "in vivo", "value": 400, "unit": "mg/kg"}]}, {"compound": "Cn1c(COP(=O)(NCCBr)NCCBr)cnc1[N+](=O)[O-]", "note": "[Compound 25]", "values": [{"measurement": "IC90", "setting": "Irs1SF; read-out: IC90 Irs1SF Air", "value": 20000, "unit": "nM"}, {"measurement": "IC90", "setting": "Irs1SF; read-out: IC90 Irs1SF N2", "value": 20, "unit": "nM"}, {"measurement": "Metabolic stability (% at 30 min) RLM", "setting": "[1]; Table 1, first study", "value": 84, "unit": "%"}, {"measurement": "Metabolic stability (% at 30 min) RLM", "setting": "[1]; Table 2A, second study", "value": 137, "unit": "%"}, {"measurement": "IC90", "setting": "HT29 spheroids", "value": 29000, "unit": "nM"}, {"measurement": "efficacy of continuous application", "setting": "H460 xenograft", "value": "efficacious"}, {"measurement": "IC90", "setting": "PC3 cells; PC-3, read-out: IC90 PC3 Air", "value": 50000, "unit": "nM"}, {"measurement": "IC90", "setting": "PC3 cells; PC-3, read-out: IC90 PC3 N2", "value": 300, "unit": "nM"}, {"measurement": "body weight", "setting": "NCI H460 xenograft [2]; 150 mg/kg once a week", "value": "Little change in body weight"}, {"measurement": "tumor growth during the two week period of dosing", "setting": "NCI H460 xenograft [2]; 150 mg/kg once a week for two weeks, i.p.", "value": "complete inhibition of tumor growth"}, {"measurement": "fold reduction in exposure to the hypoxic side under 0% O2 relative to 5% O2", "setting": "HCT116 cells; 0% O2 vs 5% O2", "value": "Approximately 3 fold"}, {"measurement": "fold more effective at inhibiting BrdU incorporation on the hypoxic side compared to the normoxic side", "setting": "HCT116 cells; 5% O2", "value": 10, "unit": "fold"}, {"measurement": "fold less compound required on the far (hypoxic) side compared to the exposed (normoxic) side", "setting": "HCT116 cells; 20% O2", "value": 5, "unit": "fold"}, {"measurement": "IC50", "setting": "HCT116 cells; HCT-116, read-out: IC50 (BrdU), Hypoxic side, 5% O2", "value": 700, "unit": "nM"}, {"measurement": "IC50", "setting": "HCT116 cells; HCT-116, read-out: IC50 (BrdU), Hypoxic side, 20% O2", "value": 2600, "unit": "nM"}, {"measurement": "IC50", "setting": "HCT116 cells; HCT-116, read-out: IC50 (BrdU), Normoxic side, 5% O2", "value": 8000, "unit": "nM"}, {"measurement": "IC50", "setting": "HCT116 cells; HCT-116, read-out: IC50 (BrdU), Normoxic side, 20% O2", "value": "> 10000", "unit": "nM"}, {"measurement": "IC50", "setting": "HCT116 cells; HCT-116, read-out: IC50 (inhibit BrdU incorporation by 50%), Hypoxic side, 0% O2", "value": "~1100", "unit": "nM"}, {"measurement": "IC50", "setting": "HCT116 cells; HCT-116, read-out: IC50 (BrdU), Normoxic side, 0% O2", "value": "~1700", "unit": "nM"}, {"measurement": "% Inhibition vs Group 2", "setting": "NCI H460 xenograft [3]; Group 3: Compound 25 25 mg/kg (q1d × 5)/week × 2 weeks", "value": 50.1, "unit": "%"}, {"measurement": "% Inhibition vs Group 2", "setting": "NCI H460 xenograft [3]; Group 4: Compound 25 50 mg/kg (q2d × 3)/week × 2 weeks", "value": 52, "unit": "%"}, {"measurement": "% Inhibition vs Group 2", "setting": "NCI H460 xenograft [3]; Group 5: Compound 25 100 mg/kg (q7d × 1)/week × 2 weeks", "value": 46.7, "unit": "%"}, {"measurement": "Metabolic stability (% at 30 min) HLM", "setting": "[4]", "value": 127, "unit": "%"}]}]}
